Patent US20120046308A1, “NOVEL ALPHA-PHENOXYBENZENEACETIC ACID DERIVATIVE AND PHARMACEUTICAL PREPARATION COMPRISING SAME” (KOWA COMPANY, LTD., priority 2009, published 2012)

Legend:
human PPARγ2 = biological target: T1, human PPARγ2 (Homo sapiens, UniProt P37231); assay: PPARγ activation activity, Gal4-PPARγ2 LBD luciferase transfection assay using COS7 cells; type: cell-based; conditions: for EC50: COS7 cells, 16 hours, luciferase activity relative to rosiglitazone = 100%, read-out: EC50; for Emax: COS-7, 16 h, maximum activity strength relative to the maximum activity of rosiglitazone, read-out: % MAX vs Rosiglitazone
T1 construct: the amino acids 182 to 505 of human PPARγ2; expressed in transfected cells; host or cells: COS7 cells (African green monkey kidney)
T1 sequence (P37231 182-505): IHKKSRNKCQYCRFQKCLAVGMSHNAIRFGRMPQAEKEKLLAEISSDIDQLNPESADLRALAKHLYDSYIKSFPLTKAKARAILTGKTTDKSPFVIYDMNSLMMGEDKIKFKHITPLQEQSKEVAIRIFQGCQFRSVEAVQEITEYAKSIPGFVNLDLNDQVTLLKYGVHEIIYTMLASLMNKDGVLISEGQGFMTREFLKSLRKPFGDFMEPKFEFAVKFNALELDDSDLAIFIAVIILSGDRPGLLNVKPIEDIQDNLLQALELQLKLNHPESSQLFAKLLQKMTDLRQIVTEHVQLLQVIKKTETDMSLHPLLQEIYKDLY
Procedure: The agonistic activity of the compounds of the invention on PPARγ was measured based on the transfection assay using COS7 cells (DS Pharma Biomedical Co., Ltd., Osaka, Japan), which are the cell line derived from the kidney of the African green monkey. COS7 cells were cultured under 5% CO2 concentration, and DMEM medium containing 10% fetal bovine serum, glutamic acid, and antibiotics was used as a medium.
As an expression vector, a chimera in which DNA binding domain of Gal4, which is a yeast transcription factor, and ligand binding domain of human PPARγ2 are fused, i.e., a fused product between the amino acids 1 to 147 of Gal4 transcription factor and the amino acids 182 to 505 of human PPARγ2, was used. Furthermore, as a reporter vector, a firefly luciferase containing five copies of Gal4 recognition sequence in the promoter region was used. Plasmid transfection to the cells was performed according to a method which uses jetPEI (trade name, manufactured by Funakoshi Co., Ltd., Tokyo, Japan). Furthermore, β-galactosidase expression vector was employed as an internal standard.
After the transfection of the cells, the medium was replaced with a DMEM medium (containing 1% serum) added with the compound, and the cells were further cultured for 16 hours. After that, the luciferase activity and β-galactosidase activity in the cell lysis solution were measured.
For the present test, dimethyl sulfoxide (DMSO) was used for dissolution and dilution of the test compounds, and during the cell treatment, the DMSO concentration in DMEM medium (containing 1% serum) was adjusted to 0.1%. As a positive compound, rosiglitazone (trade name, manufactured by ALEXIS Corporation, Switzerland) was used. The luciferase activity (%) of the test compounds (1 to 30 μmol/L) was calculated when the luciferase activity of rosiglitazone (3 to 10 μmol/L) is 100% and the luciferase activity in the absence of the test compound is 0%. The 50% effective concentration of the test compound (EC50, 50% effect concentration) was calculated by using SAS Preclinical Package Ver5.0 (trade name, manufactured by SAS institute Japan Co., Tokyo, Japan), which is a statistical analysis program.

[1] = biological target: T2, angiotensin II type 1 receptor (Oryctolagus cuniculus, UniProt P34976); assay: Angiotensin II antagonistic activity in isolated rabbit blood vessels (thoracic aorta ring contraction); conditions: angiotensin II (10 nM)-induced contraction
T2 construct: By using a specimen of isolated rabbit blood vessels; from tissue; host or cells: rabbit (New Zealand White) thoracic aorta ring
T2 sequence (P34976 1-359): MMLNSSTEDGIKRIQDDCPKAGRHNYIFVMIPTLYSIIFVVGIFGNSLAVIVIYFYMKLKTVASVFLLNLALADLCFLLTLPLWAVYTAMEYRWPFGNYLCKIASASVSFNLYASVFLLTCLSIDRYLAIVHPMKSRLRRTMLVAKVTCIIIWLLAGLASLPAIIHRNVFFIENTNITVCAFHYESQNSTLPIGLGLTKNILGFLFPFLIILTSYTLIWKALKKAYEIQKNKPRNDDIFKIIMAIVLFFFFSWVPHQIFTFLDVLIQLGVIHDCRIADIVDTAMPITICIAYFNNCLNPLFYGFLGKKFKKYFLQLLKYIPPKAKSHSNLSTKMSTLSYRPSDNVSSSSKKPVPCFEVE
Procedure: By using a specimen of isolated rabbit blood vessels, antagonistic activity of the compounds of the invention against angiotensin II type 1 receptor was estimated from a dose-response curve of angiotensin II-induced blood vessel contraction.
During the measurement, the inside temperature of the magnus bath was maintained at 37° C. and the bath was continuously ventilated with a sufficient amount of mixed gas (95% O2 and 5% CO2). The angiotensin II-induced contraction was converted into a relative value (%) that is based on the angiotensin II (10 nM)-induced contraction in the absence of the compounds of each example. From the concentration-response curve obtained therefrom, 50% inhibition concentration (IC50 value) was calculated by using SAS Preclinical Package Ver5.0 (trade name, manufactured by SAS institute Japan Co., Tokyo, Japan), which is a statistical analysis program.

| SMILES | EC50 (human PPARγ2) | IC50 [1] | Emax (human PPARγ2) |
| --- | --- | --- | --- |
| CCCCc1nc(C)n(-c2ncc(OC)cn2)c(=O)c1Cc1cc(CCC)c(OC(C(=O)O)c2ccccc2)c(CCC)c1 (single isomer, unassigned; (+)) [Example 17, (+)-2-[4-[{4-butyl-1-(5-methoxypyrimidin-2-yl)-2-methyl-6-oxo-1,6-dihydropyrimidin-5-yl}methyl]-2,6-dipropylphenoxy]-2-phenylacetic acid] | 3710 nM |  |  |
| CCCCc1nc(C)n(-c2ncc(OC)cn2)c(=O)c1Cc1cc(CCC)c(OC(C(=O)O)c2ccccc2)c(CCC)c1 (single isomer, unassigned; (-)) [Example 16, (−)-2-[4-[{4-butyl-1-(5-methoxypyrimidin-2-yl)-2-methyl-6-oxo-1,6-dihydropyrimidin-5-yl}methyl]-2,6-dipropylphenoxy]-2-phenylacetic acid] | 1460 nM | 58 nM | 44.4% |
| CCCc1cc(Cc2c(CCC)nc(C)n(-c3ccccn3)c2=O)cc(CCC)c1OC(C(=O)O)c1ccccc1 (stereo not drawn) [Example 2, 2-[4-[{2-methyl-6-oxo-4-propyl-1-(pyridin-2-yl)-1,6-dihydropyrimidin-5-yl}methyl]-2,6-dipropylphenoxy]-2-phenylacetic acid] | 3910 nM |  | 25.2% |
| CCCc1cc(Cc2c(CC)nc(C)n(-c3ccccn3)c2=O)cc(CCC)c1OC(C(=O)O)c1ccccc1 (stereo not drawn) [Example 3] | 3520 nM |  |  |
| CCCCc1nc(C)n(-c2ccccn2)c(=O)c1Cc1cc(CCC)c(OC(c2ccccc2)c2nnn[nH]2)c(CCC)c1 (stereo not drawn) [Example 4, 6-butyl-2-methyl-5-[4-{phenyl(1H-tetrazol-5-yl)methoxy}-3,5-dipropylbenzyl]-3-(pyridin-2-yl)pyrimidin-4(3H)-one] | 1720 nM |  |  |
| CCCCc1nc(C)n(-c2ccccn2)c(=O)c1Cc1cc(CCC)c(OC(c2ccccc2)c2noc(=O)[nH]2)c(CCC)c1 (stereo not drawn) [Example 5, 3-[[4-[{4-butyl-2-methyl-6-oxo-1-(pyridin-2-yl)-1,6-dihydropyrimidin-5-yl}methyl]-2,6-dipropylphenoxy](phenyl)methyl]-1,2,4-oxadiazol-5(4H)-one] | 1190 nM |  | 35.1% |
| CCCCc1nc(C)n(-c2ccccn2)c(=O)c1Cc1cc(CCC)c(OC(C(=O)NS(C)(=O)=O)c2ccccc2)c(CCC)c1 (stereo not drawn) [Example 6, 2-[4-[{4-butyl-2-methyl-6-oxo-1-(pyridin-2-yl)-1,6-dihydropyrimidin-5-yl}methyl]-2,6-dipropylphenoxy]-N-(methylsulfonyl)-2-phenyl acetoamide] | 3190 nM |  |  |
| CCCCc1nc(C)n(-c2ccccn2)c(=O)c1Cc1cc(CCC)c(OC(C(=O)O)c2ccccc2Cl)c(CCC)c1 (stereo not drawn) [Example 7] | 3460 nM |  | 23.3% |
| CCCCc1nc(C)n(-c2ccccn2)c(=O)c1Cc1cc(CCC)c(OC(C(=O)O)c2cccc(Cl)c2)c(CCC)c1 (stereo not drawn) [Example 8, 2-[4-[{4-butyl-2-methyl-6-oxo-1-(pyridin-2-yl)-1,6-dihydropyrimidin-5-yl}methyl]-2,6-dipropylphenoxy]-2-(3-chlorophenyl)acetic acid] | 2020 nM |  | 41.4% |
| CCCCc1nc(C)n(-c2ccccn2)c(=O)c1Cc1cc(CCC)c(OC(C(=O)O)c2ccccc2OC)c(CCC)c1 (stereo not drawn) [Example 10, 2-[4-[{4-butyl-2-methyl-6-oxo-1-(pyridin-2-yl)-1,6-dihydropyrimidin-5-yl}methyl]-2,6-dipropylphenoxy]-2-(2-methoxyphenyl)acetic acid] | 3290 nM |  | 25.6% |
| CCCCc1nc(C)n(-c2ccccn2)c(=O)c1Cc1cc(CCC)c(OC(c2nnn[nH]2)c2ccccc2Cl)c(CCC)c1 (stereo not drawn) [Example 11, 6-butyl-5-[4-{(2-chlorophenyl)(1H-tetrazol-5-yl)methoxy}-3,5-dipropylbenzyl]-2-methyl-3-(pyridin-2-yl)pyrimidin-4(3H)-one] | 2630 nM |  |  |
| CCCCc1nc(C)n(-c2ccc(OCC)cc2)c(=O)c1Cc1cc(CCC)c(OC(C(=O)O)c2ccccc2)c(CCC)c1 (stereo not drawn) [Example 13] | 480 nM |  | 42.9% |
| CCCCc1nc(C)n(-c2ncc(OC)cn2)c(=O)c1Cc1cc(CCC)c(OC(C(=O)O)c2ccc(Cl)cc2)c(CCC)c1 (stereo not drawn) [Example 18, 2-[4-[{4-butyl-1-(5-methoxypyrimidin-2-yl)-2-methyl-6-oxo-1,6-dihydropyrimidin-5-yl}methyl]-2,6-dipropylphenoxy]-2-(4-chlorophenyl)acetic acid] | 1400 nM |  | 49.1% |
| CCCCc1nc(C)n(-c2ncc(OCc3ccccc3)cn2)c(=O)c1Cc1cc(CCC)c(OC(C(=O)O)c2ccccc2)c(CCC)c1 (stereo not drawn) [Example 19, 2-[4-[[1-[5-(benzyloxy)pyrimidin-2-yl]-4-butyl-2-methyl-6-oxo-1,6-dihydropyrimidin-5-yl]methyl]-2,6-dipropylphenoxy]-2-phenylacetic acid] | 650 nM |  | 49.9% |
| CCCCc1nc(C)n(-c2ncc(OCCCC(N)=O)cn2)c(=O)c1Cc1cc(CCC)c(OC(C(=O)O)c2ccccc2)c(CCC)c1 (stereo not drawn) [Example 23] |  | 67 nM |  |
| CCCCc1nc(C)n(-c2ncc(OCCSC)cn2)c(=O)c1Cc1cc(CCC)c(OC(C(=O)O)c2ccccc2)c(CCC)c1 (stereo not drawn) [Example 24, 2-[4-[[4-butyl-2-methyl-1-[5-{2-(methylthio)ethoxy}pyrimidin-2-yl]-6-oxo-1,6-dihydropyrimidin-5-yl]methyl]-2,6-dipropylphenoxy]-2-phenylacetic acid] | 1340 nM |  | 39.8% |
| CCCCc1nc(C)n(-c2ncc(OCC[S+](C)[O-])cn2)c(=O)c1Cc1cc(CCC)c(OC(C(=O)O)c2ccccc2)c(CCC)c1 (stereo not drawn) [Example 25] |  | 76 nM |  |
| CCCCc1nc(C)n(-c2ncc(OCCS(C)(=O)=O)cn2)c(=O)c1Cc1cc(CCC)c(OC(C(=O)O)c2ccccc2)c(CCC)c1 (stereo not drawn) [Example 26, 2-[4-[[4-butyl-2-methyl-1-[5-{2-(methylsulfonyl)ethoxy}pyrimidin-2-yl]-6-oxo-1,6-dihydropyrimidin-5-yl]methyl]-2,6-dipropylphenoxy]-2-phenylacetic acid] |  | 353 nM |  |
| CCCCc1nc(C)n(-c2ncc(O)cn2)c(=O)c1Cc1cc(CCC)c(OC(C(=O)O)c2ccccc2)c(CCC)c1 (stereo not drawn) [Example 27, 2-[4-[{4-butyl-1-(5-hydroxypyrimidin-2-yl)-2-methyl-6-oxo-1,6-dihydropyrimidin-5-yl}methyl]-2,6-dipropylphenoxy]-2-phe nylacetic acid] |  | 468 nM |  |
| CCCCc1nc(C)nc(OCc2ccccc2)c1Cc1cc(CCC)c(OC(C(=O)O)c2ccccc2)c(CCC)c1 (stereo not drawn) [Example 29] | 2490 nM |  |  |
| CCCCc1nc(CCc2ccc(CC)cn2)[nH]c(=O)c1Cc1cc(CCC)c(OC(C(=O)O)c2ccccc2)c(CCC)c1 (stereo not drawn) [Example 31] | 1210 nM |  |  |
| CCCCc1nc(C)nc(OCCOC)c1Cc1cc(CCC)c(OC(C(=O)O)c2ccccc2)c(CCC)c1 (stereo not drawn) [Example 32, 2-[4-[{4-butyl-6-(2-methoxyethoxy)-2-methylpyrimidin-5-yl}methyl]-2,6-dipropylphenoxy]-2-phenylacetic acid] | 2400 nM |  |  |
